Where “and” joins values, the source holds several entries; their conditions need not be identical. Equal entries are not always repeated.
Legend:
stomach = assay: Gastric-ulcerogenic effect (ulcer score); format: in vivo, mice; details: 200 mg/kg p.o.; animals with lesions/animals
[1] = molecular target: T1, HCV NS5B RNA dependent RNA polymerase (Hepatitis C virus genotype 1b, UniProt P26663); assay: NS5B inhibition assay (primer dependent elongation, poly rA-U12); format: biochemical; details: for inhibition at 100 µM: read-out: Anti-NS5B Activity (% Inh., 100 µM)
T1 construct: HCV NS5B RNA dependent RNA polymerase activity
T1 sequence (P26663 2420-3010): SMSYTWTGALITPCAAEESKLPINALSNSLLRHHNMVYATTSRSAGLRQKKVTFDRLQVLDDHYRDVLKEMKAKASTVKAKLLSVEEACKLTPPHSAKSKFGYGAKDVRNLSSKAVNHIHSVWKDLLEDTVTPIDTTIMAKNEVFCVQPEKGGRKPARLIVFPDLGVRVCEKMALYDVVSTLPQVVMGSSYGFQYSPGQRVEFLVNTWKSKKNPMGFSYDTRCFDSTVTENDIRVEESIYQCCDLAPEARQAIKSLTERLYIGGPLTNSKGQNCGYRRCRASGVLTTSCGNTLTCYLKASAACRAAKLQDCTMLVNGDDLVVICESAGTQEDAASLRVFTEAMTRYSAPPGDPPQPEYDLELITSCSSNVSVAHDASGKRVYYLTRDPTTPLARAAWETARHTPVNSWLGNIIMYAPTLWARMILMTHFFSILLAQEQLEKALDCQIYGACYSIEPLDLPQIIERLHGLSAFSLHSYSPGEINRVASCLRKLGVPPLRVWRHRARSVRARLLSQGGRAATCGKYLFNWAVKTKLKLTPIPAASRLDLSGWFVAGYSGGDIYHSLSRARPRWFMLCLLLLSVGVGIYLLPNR
Protocol: The compounds 1a–e and 2a–e were reconstituted in DMSO as 50 mM stocks, and serially diluted in DMSO to obtain working stocks. Wedelolactone, a known inhibitor of HCV NS5B activity, was employed as a reference compound. Preliminary screening was carried out at 100 μM to identify a wider range of compounds.
All synthesized compounds were evaluated for their effect on HCV NS5B RNA dependent RNA polymerase activity in primer dependent elongation assays as previously described. Activity of NS5B in the absence of the inhibitor but containing an equivalent amount of DMSO (control reaction) was set at 100% and that in the presence of the inhibitor was quantified relative to this control.

[2] = system: acetic acid-induced abdominal constriction; assay: Acetic acid-induced writhing (Koster) test; format: in vivo, mice; details: for Writhing test (% inh.) / Writhing test (Mean ± SEM): 100 mg/kg oral; for Writhing test (Mean ± SEM): writhings counted 10 min from 5 min after acetic acid; for analgesic activity (in words): 100 mg/kg
Protocol: Test samples, suspended in a mixture of distilled water and 0.5% sodium carboxymethyl cellulose (CMC), were given orally to the animals. The control group animals received the same experimental handling as those of the test groups, except that the drug treatment was replaced with appropriate volumes of the dosing vehicle. […] One hour after oral administration of test sample, each mouse was injected intraperitoneally with 3% (w/v) acetic acid solution (0.1 mL/10 g, bw). Starting 5 min after the acetic acid injection, the number of muscular contractions on mice were counted for a period of 10 min. A significant reduction in the number of writhings by any treatment as compared to the number of writhings in control animals was considered a positive analgesic response. The analgesic activity was expressed as a percentage change from writhing controls. ASA was used as a reference compound and administered at 200 mg/kg.

[3] = system: lipid peroxidation in stomach; assay: Lipid peroxidation in stomach (TBARS); format: in vivo, mice; details: 100 mg/kg, 8 h after analgesic test
[4] = system: carrageenan-induced hind paw edema; assay: Carrageenan-induced hind paw edema model; format: in vivo, mice; details: for anti-inflammatory activity (in words): all doses, all measurement intervals
Protocol: Locally bred balb/c mice of both sexes (30-35 g) were purchased from the animal breeding laboratories of Inonu University ([…], Turkey). The animals were fed a standard pellet diet and water ad libitum in a temperature-controlled room. On the day before the treatments, food was withdrawn, but the animals were allowed free access of water. The allocation of animals to different groups was randomized, and the experiments were carried out under blind conditions. Mice used in the present study were cared for in accordance with the directory of the Inonu University Animal Care Unit, which applies the guidelines of the National Institutes of Health on laboratory animal welfare. Procedures involving animals and their care were conducted in conformity with international laws and policies and animal studies accepted by Inonu University Ethical Council (2011/A17). Test samples, suspended in a mixture of distilled water and 0.5% sodium carboxymethyl cellulose (CMC), were given orally to the animals. The control group animals received the same experimental handling as those of the test groups, except that the drug treatment was replaced with appropriate volumes of the dosing vehicle. […] For the preliminary activity screening, each test group was composed of four mice. […] Because of the daily changing circumstance, we used another control group for each experiment. For the determination of the effects on carrageenan-induced paw oedema, the modified method of Kasahara et al. was employed. One hour after the oral administration of either test sample or dosing vehicle, each mouse was injected with a freshly prepared (0.5 mg/25 μL) suspension of carrageenan (Sigma, St. Louis, MO, USA) in physiological saline (154 mM NaCl). The subplantar tissue of the right hind paw was the injection site for all mice. The contralateral paw (left hind paw) was injected with 25 μL saline solution as the internal control. […] The difference in footpad thickness between the right and left foot indicated the degree of inflammation for each mouse. The change in paw volume, either increase or decrease, was calculated and compared with the control group (dosing vehicle) and analyzed using statistical methods.

SMILES | Ulcer score (stomach) | melting point | inhibition at 100 µM [1] | Writhing test (% inh.) [2] | Writhing test (Mean ± SEM) [2] | Lipid peroxidation [3] | Swelling in thickness ± SEM ([4]; 50 mg/kg per os, 90 min) | percent inhibitory activity ([4]; 50 mg/kg per os, 90 min) | Swelling in thickness ± SEM ([4]; 50 mg/kg per os, 180 min) | percent inhibitory activity ([4]; 50 mg/kg per os, 180 min) | Swelling in thickness ± SEM ([4]; 50 mg/kg per os, 270 min) | percent inhibitory activity ([4]; 50 mg/kg per os, 270 min) | Swelling in thickness ± SEM ([4]; 50 mg/kg per os, 360 min) | percent inhibitory activity ([4]; 50 mg/kg per os, 360 min) | Swelling in thickness ± SEM ([4]; 100 mg/kg per os, 90 min) | Swelling in thickness ± SEM ([4]; 100 mg/kg per os, 270 min) | percent inhibitory activity ([4]; 100 mg/kg per os, 270 min) | Swelling in thickness ± SEM ([4]; 100 mg/kg per os, 360 min) | percent inhibitory activity ([4]; 100 mg/kg per os, 360 min) | Swelling in thickness ± SEM ([4]; 200 mg/kg per os, 90 min) | further results
Cc1ccc(-c2cc(C(F)(F)F)nn2-c2ccc(S(=O)(=O)NC(=S)Nc3ccc([N+](=O)[O-])cc3)cc2)cc1 [Compound 1d] | 0/5 | 245 to 248 °C | 68% | 19.5% | 14.0 ± 3.0 | 429.2 ± 23.2 nmol TBARS/g wet weight | 70.0 ± 4.7 × 10^−2 mm | 2.7% | 77.0 ± 2.0 × 10^−2 mm | 16.3% | 112.0 ± 7.3 × 10^−2 mm | 7.4% | 125.0 ± 5.9 × 10^−2 mm | 3.1% | 95.9 ± 10.2 × 10^−2 mm | 110.7 ± 11.0 × 10^−2 mm | 8.5% | 88.7 ± 9.3 × 10^−2 mm | 31.2% | 45.9 ± 10.9 × 10^−2 mm | IC50 ([1]; dose-response, 8–12 concentrations): 46 µM and 45.5 µM; percent inhibitory activity ([4]; 200 mg/kg per os, 90 min): 36.2%; Swelling in thickness ± SEM ([4]; 200 mg/kg per os, 180 min): 65.3 ± 6.4 × 10^−2 mm; percent inhibitory activity ([4]; 200 mg/kg per os, 180 min): 29.0%; Swelling in thickness ± SEM ([4]; 200 mg/kg per os, 270 min): 98.2 ± 9.8 × 10^−2 mm; percent inhibitory activity ([4]; 200 mg/kg per os, 270 min): 19.0%; Swelling in thickness ± SEM ([4]; 200 mg/kg per os, 360 min): 91.0 ± 3.3 × 10^−2 mm; percent inhibitory activity ([4]; 200 mg/kg per os, 360 min): 29.5%; anti-inflammatory activity (in words) [4]: moderate-to-good
Cc1ccc(-c2cc(C(F)(F)F)nn2-c2ccc(S(=O)(=O)/N=C3\SCC(=O)N3c3ccc([N+](=O)[O-])cc3)cc2)cc1 [Compound 2d, N-[3-(4-Nitrophenyl)-4-oxo-1,3-thiazolidin-2-yldene)-4-[5-(4-methylphenyl)-3-(trifluoromethyl)-1H-pyrazol-1-yl]benzenesulfonamide] | 0/5 | 270 to 272 °C | 31.3% | 31% | 12.0 ± 2.6 | 350.2 ± 9.9 nmol TBARS/g wet weight | 47.0 ± 3.3 × 10^−2 mm | 34.7% | 47.0 ± 3.7 × 10^−2 mm | 48.9% | 89.0 ± 6.5 × 10^−2 mm | 26.4% | 110.0 ± 6.7 × 10^−2 mm | 14.7% | 73.2 ± 11.1 × 10^−2 mm | 98.2 ± 16.7 × 10^−2 mm | 21.6% | 120.9 ± 9.3 × 10^−2 mm | 6.3% | 80.6 ± 9.4 × 10^−2 mm | analgesic activity (in words) [2]: not statistically significant; Swelling in thickness ± SEM ([4]; 100 mg/kg per os, 180 min): 100.6 ± 5.8 × 10^−2 mm; Swelling in thickness ± SEM ([4]; 200 mg/kg per os, 180 min): 86.0 ± 9.4 × 10^−2 mm; percent inhibitory activity ([4]; 200 mg/kg per os, 180 min): 6.5%; Swelling in thickness ± SEM ([4]; 200 mg/kg per os, 360 min): 108.6 ± 5.6 × 10^−2 mm; percent inhibitory activity ([4]; 200 mg/kg per os, 360 min): 15.8%; anti-inflammatory activity (in words) [4]: moderate-to-good
Cc1ccc(-c2cc(C(F)(F)F)nn2-c2ccc(S(=O)(=O)/N=C3\SCC(=O)N3Cc3ccccc3)cc2)cc1 [Compound 2c, N-(3-Benzyl-4-oxo-1,3-thiazolidin-2-yldene)-4-[5-(4-methylphenyl)-3-(trifluoromethyl)-1H-pyrazol-1-yl]benzenesulfonamide] | 0/5 | 250 °C | 19.4% | 32.2% | 11.8 ± 1.4 | 330.4 ± 9.7 nmol TBARS/g wet weight | 65.0 ± 6.1 × 10^−2 mm | 9.7% | 74.0 ± 8.8 × 10^−2 mm | 19.5% | 95.0 ± 10.0 × 10^−2 mm | 21.4% | 110.0 ± 7.1 × 10^−2 mm | 14.7% | 83.4 ± 8.7 × 10^−2 mm | 91.7 ± 16.7 × 10^−2 mm | 24.2% | 118.2 ± 7.1 × 10^−2 mm | 8.3% | 69.5 ± 8.3 × 10^−2 mm | analgesic activity (in words) [2]: not statistically significant; Swelling in thickness ± SEM ([4]; 100 mg/kg per os, 180 min): 90.6 ± 11.7 × 10^−2 mm; percent inhibitory activity ([4]; 200 mg/kg per os, 90 min): 3.4%; Swelling in thickness ± SEM ([4]; 200 mg/kg per os, 180 min): 75.6 ± 8.3 × 10^−2 mm; percent inhibitory activity ([4]; 200 mg/kg per os, 180 min): 17.8%; Swelling in thickness ± SEM ([4]; 200 mg/kg per os, 270 min): 133.2 ± 14.3 × 10^−2 mm; Swelling in thickness ± SEM ([4]; 200 mg/kg per os, 360 min): 120.1 ± 5.3 × 10^−2 mm; percent inhibitory activity ([4]; 200 mg/kg per os, 360 min): 6.9%

Reference: PMC6269910 (Molecules, 2013)
